PubChem BioAssay AID1963451 (Molecular Pharmacology Branch, DTP, NCI, 2024)

Tested on: 521955-158-R6-J3-PDC complex spheroid growth, % test/control
Assay: Anticancer human tumor 521955-158-R6-J3-PDC patient-derived pancreatic carcinoma cell line growth inhibition [Asc]
Conditions: for IC50: curve of first compound; for viability, T/C: stronger effect = lower value; active = viability on the fitted dose curve at most 10% of control; inactive = the rest
How it was run: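 Spheroid model: tumor line + HUVEC + hMSC. Single agents and combinations; top conc. at/near clinical Cmax (10 microM if undetermined), half-log dilutions. DMSO stocks at 800-fold test concentration.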

[1] = second compound 0.00316 µM, first compound 0.00316 µM
[2] = second compound 0.00316 µM, first compound 0.01 µM
[3] = second compound 0.00316 µM, first compound 0.0316 µM
[4] = second compound 0.00316 µM, first compound 0.1 µM
[5] = second compound 0.00316 µM, first compound 0.316 µM
[6] = second compound 0.00316 µM, first compound 1 µM
[7] = second compound 0.01 µM, first compound 0.00316 µM
[8] = second compound 0.01 µM, first compound 0.01 µM
[9] = second compound 0.01 µM, first compound 0.0316 µM
[10] = second compound 0.01 µM, first compound 0.1 µM
[11] = second compound 0.01 µM, first compound 0.316 µM
[12] = second compound 0.01 µM, first compound 1 µM
[13] = second compound 0.0316 µM, first compound 0.00316 µM
[14] = second compound 0.0316 µM, first compound 0.01 µM
[15] = second compound 0.0316 µM, first compound 0.0316 µM
[16] = second compound 0.0316 µM, first compound 0.1 µM
[17] = second compound 0.0316 µM, first compound 0.316 µM
[18] = second compound 0.0316 µM, first compound 1 µM
[19] = second compound 0.1 µM, first compound 0.00316 µM
[20] = second compound 0.1 µM, first compound 0.01 µM
[21] = second compound 0.1 µM, first compound 0.0316 µM
[22] = second compound 0.1 µM, first compound 0.1 µM
[23] = second compound 0.1 µM, first compound 0.316 µM
[24] = second compound 0.1 µM, first compound 1 µM
[25] = second compound 0.316 µM, first compound 0.00316 µM
[26] = second compound 0.316 µM, first compound 0.01 µM
[27] = second compound 0.316 µM, first compound 0.0316 µM
[28] = second compound 0.316 µM, first compound 0.1 µM
[29] = second compound 0.316 µM, first compound 0.316 µM
[30] = second compound 0.316 µM, first compound 1 µM
[31] = second compound 1 µM, first compound 0.00316 µM
[32] = second compound 1 µM, first compound 0.01 µM
[33] = second compound 1 µM, first compound 0.0316 µM
[34] = second compound 1 µM, first compound 0.1 µM
[35] = second compound 1 µM, first compound 0.316 µM
[36] = second compound 1 µM, first compound 1 µM
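Also: spheroids exposed to compounds for 7 days.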
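For viability, T/C in this document: 100% = DMSO vehicle control wells.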

CCN1CCN(Cc2ccc(Nc3ncc(F)c(-c4cc(F)c5nc(C)n(C(C)C)c5c4)n3)nc2)CC1 + CNC(C)C(=O)NC1CN(S(=O)(=O)c2cccc(S(=O)(=O)N3CCC4CCC(C(=O)NC(c5ccccc5)c5ccccc5)N4C(=O)C(NC(=O)C(C)NC)C3)c2)CCC2CCC(C(=O)NC(c3ccccc3)c3ccccc3)N2C1=O
> 1000 nM: IC50 (second compound 0.00316 µM) | IC50 (second compound 0.01 µM) | IC50 (second compound 0.0316 µM) | IC50 (second compound 0.1 µM) | IC50 (second compound 0.316 µM) | IC50 (second compound 1 µM)
inactive: viability, T/C [1] 174% | viability, T/C [2] 141% | viability, T/C [3] 140% | viability, T/C [4] 153% | viability, T/C [5] 136% | viability, T/C [6] 120% | viability, T/C [7] 94.2% | viability, T/C [8] 76.4% | viability, T/C [9] 86.1% | viability, T/C [10] 75.9% | viability, T/C [11] 74.9% | viability, T/C [12] 86.4% | viability, T/C [13] 103% | viability, T/C [14] 82.1% | viability, T/C [15] 73.6% | viability, T/C [16] 83.4% | viability, T/C [17] 83.6% | viability, T/C [18] 92.1% | viability, T/C [19] 107% | viability, T/C [20] 114% | viability, T/C [21] 102% | viability, T/C [22] 75.9% | viability, T/C [23] 88.2% | viability, T/C [24] 100% | viability, T/C [25] 87.4% | viability, T/C [26] 78.8% | viability, T/C [27] 71% | viability, T/C [28] 66.5% | viability, T/C [29] 67.1% | viability, T/C [30] 71% | viability, T/C [31] 86.3% | viability, T/C [32] 81.3% | viability, T/C [33] 71.8% | viability, T/C [34] 72.8% | viability, T/C [35] 77.3% | viability, T/C [36] 83.9%

Cn1ncnc1[C@H]1c2n[nH]c(=O)c3cc(F)cc(c23)N[C@@H]1c1ccc(F)cc1 + CNC(C)C(=O)NC1CN(S(=O)(=O)c2cccc(S(=O)(=O)N3CCC4CCC(C(=O)NC(c5ccccc5)c5ccccc5)N4C(=O)C(NC(=O)C(C)NC)C3)c2)CCC2CCC(C(=O)NC(c3ccccc3)c3ccccc3)N2C1=O
inactive: viability, T/C (second compound 0.00316 µM, first compound 0.000316 µM) 188% | viability, T/C (second compound 0.00316 µM, first compound 0.001 µM) 151% | viability, T/C [1] 151% | viability, T/C [2] 159% | viability, T/C [3] 163% | viability, T/C [4] 140% | viability, T/C (second compound 0.01 µM, first compound 0.000316 µM) 154% | viability, T/C (second compound 0.01 µM, first compound 0.001 µM) 171% | viability, T/C [7] 142% | viability, T/C [8] 146% | viability, T/C [9] 153% | viability, T/C [10] 161% | viability, T/C (second compound 0.0316 µM, first compound 0.000316 µM) 96.4% | viability, T/C (second compound 0.0316 µM, first compound 0.001 µM) 79.9% | viability, T/C [13] 93.6% | viability, T/C [14] 74.6% | viability, T/C [15] 76.9% | viability, T/C [16] 92.1% | viability, T/C (second compound 0.1 µM, first compound 0.000316 µM) 93.2% | viability, T/C (second compound 0.1 µM, first compound 0.001 µM) 79.2% | viability, T/C [19] 85.6% | viability, T/C [20] 83% | viability, T/C [21] 87.4% | viability, T/C [22] 78.2% | viability, T/C (second compound 0.316 µM, first compound 0.000316 µM) 84.8% | viability, T/C (second compound 0.316 µM, first compound 0.001 µM) 72.6% | viability, T/C [25] 83.3% | viability, T/C [26] 87.1% | viability, T/C [27] 89.3% | viability, T/C [28] 84.1% | viability, T/C (second compound 1 µM, first compound 0.000316 µM) 73.3% | viability, T/C (second compound 1 µM, first compound 0.001 µM) 74.9% | viability, T/C [31] 83.9% | viability, T/C [32] 74.7% | viability, T/C [33] 87.8% | viability, T/C [34] 83.2%
> 100 nM: IC50 (second compound 0.00316 µM) | IC50 (second compound 0.01 µM) | IC50 (second compound 0.0316 µM) | IC50 (second compound 0.1 µM) | IC50 (second compound 0.316 µM) | IC50 (second compound 1 µM)

O=C(c1ccc(F)c(F)c1Nc1ccc(I)cc1F)N1CC(O)([C@@H]2CCCCN2)C1 + CNC(C)C(=O)NC1CN(S(=O)(=O)c2cccc(S(=O)(=O)N3CCC4CCC(C(=O)NC(c5ccccc5)c5ccccc5)N4C(=O)C(NC(=O)C(C)NC)C3)c2)CCC2CCC(C(=O)NC(c3ccccc3)c3ccccc3)N2C1=O
291 nM: IC50 (second compound 0.0316 µM)
207 nM: IC50 (second compound 0.316 µM)
569 nM: IC50 (second compound 0.00316 µM)
503 nM: IC50 (second compound 0.1 µM)
139 nM: IC50 (second compound 1 µM)
inactive: viability, T/C [1] 150% | viability, T/C [2] 127% | viability, T/C [3] 120% | viability, T/C [4] 105% | viability, T/C [5] 60% | viability, T/C [6] 36% | viability, T/C [7] 87.4% | viability, T/C [8] 84.9% | viability, T/C [9] 94.8% | viability, T/C [10] 74.9% | viability, T/C [11] 45.5% | viability, T/C [12] 30.7% | viability, T/C [13] 88.7% | viability, T/C [14] 88.6% | viability, T/C [15] 90.1% | viability, T/C [16] 72% | viability, T/C [17] 49.2% | viability, T/C [18] 31% | viability, T/C [19] 117% | viability, T/C [20] 94.3% | viability, T/C [21] 102% | viability, T/C [22] 83.8% | viability, T/C [23] 65.7% | viability, T/C [24] 28.7% | viability, T/C [25] 72.6% | viability, T/C [26] 76.1% | viability, T/C [27] 72.5% | viability, T/C [28] 61% | viability, T/C [29] 43.6% | viability, T/C [30] 29.9% | viability, T/C [31] 78.9% | viability, T/C [32] 70.9% | viability, T/C [33] 95.4% | viability, T/C [34] 56.5% | viability, T/C [35] 39.5% | viability, T/C [36] 27.4%
261 nM: IC50 (second compound 0.01 µM)
